We go through two molecules from patent publication US10392398B2, “Inhibitors of Late SV40 Factor (LSF) as cancer chemotherapeutics” (TRUSTEES OF BOSTON UNIVERSITY, priority 2010, dated 2019).

Where “and” joins values, the source holds several entries; their conditions need not be identical. Identical values can stand only once. Like-named read-outs stand apart in the source and are kept apart here.

Holding throughout (format): cell-based
The target of one test is T1, LSF (Homo sapiens, UniProt Q12800).
T1 sequence (Q12800 1-502): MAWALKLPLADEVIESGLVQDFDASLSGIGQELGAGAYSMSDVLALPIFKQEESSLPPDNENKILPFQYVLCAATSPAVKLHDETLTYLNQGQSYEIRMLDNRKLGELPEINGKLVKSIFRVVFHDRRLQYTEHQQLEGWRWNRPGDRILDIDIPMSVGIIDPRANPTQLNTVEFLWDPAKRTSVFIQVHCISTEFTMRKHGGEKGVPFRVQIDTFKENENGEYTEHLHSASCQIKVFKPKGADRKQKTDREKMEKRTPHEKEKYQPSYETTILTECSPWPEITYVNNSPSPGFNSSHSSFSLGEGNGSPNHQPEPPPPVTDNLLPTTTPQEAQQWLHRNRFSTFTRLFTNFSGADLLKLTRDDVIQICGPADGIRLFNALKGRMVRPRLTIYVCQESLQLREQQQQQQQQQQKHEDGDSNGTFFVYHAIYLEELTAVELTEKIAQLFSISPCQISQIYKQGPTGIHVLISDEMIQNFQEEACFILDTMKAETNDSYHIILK
In words: LSF-dependent luciferase reporter assay in NIH 3T3 cells. Details: expressed in transfected cells; host or cells: NIH 3T3. As to the method: NIH 3T3 cells were transfected with the expression construct pEF1α-LSF, a LSF expression vector^6,20; the reporter construct pGL3B-WT4E1b, a firefly luciferase reporter vector driven by LSF^12; phRL-TK, a control renilla luciferase reporter vector; and pEFGP, essentially as previously described^12. Five hours after transfection, either vehicle (DMSO) or FQI compound was added, keeping DMSO at 0.5%. Cell extracts were harvested 36 hours post-transfection and firefly and renilla luciferase activities measured via a dual luciferase assay (Promega). Five μl of extract was mixed with 30 μl of luciferase assay reagent (Promega), and luminescence measured for 10 seconds using a 20/20n luminometer (Turner Biosystems). Subsequently, 30 μl of Stop & Glo reagent (Promega) was added, and luminescence also measured for 10 seconds. LSF transactivation activity is given as relative luciferase activity, the ratio of firefly to renilla activities.
NIH-3T3 cells were cultured at 37° C. in 5% CO2 in DMEM (Dulbecco's modification of Eagle's Medium; Corning) supplemented with 10% FCS (FCS; Atlanta Biologicals). Approximately 24 hours prior to transfection, 200,000 cells were plated in 35 mm dishes. After 24 hours, cells were ˜70% confluent, and were transfected for 5 hours with pEF1α-LSF, the reporter construct pGL3B-WT4E1b, phRLTK, and pEFGP (Grant, T. J. et al. Antiproliferative small-molecule inhibitors of transcription factor LSF reveal oncogene addiction to LSF in hepatocellular carcinoma. PNAS (2012), 109, 1-6). Vehicle (DMSO) or FQI-34 was then added, keeping the DMSO at 0.5%. Cell extracts were harvested 36 h post-transfection, and firefly and renilla luciferase activities were measured via a dual luciferase assay (Promega Dual-Luciferase Reporter Assay System). Relative luciferase activity represents firefly luciferase activity normalized to that of renilla luciferase in each extract. IC50 values were determined from plots of normalized luciferase activity vs. compound concentration (Prism GraphPad; non-linear regression 4-parameter curve fit with variable slope).

A further test concerns NIH/3T3 cells. In words: Cell proliferation assay (MTS), NIH/3T3. The following applies: Mus musculus, NIH3T3. As to the method:
(§1) Cells were plated at 3×10^4 cells/mL, A549 and HeLa, and 1×10^4 cells/mL, NIH/3T3, in 96-well plates and incubated for 24 h to allow for cell adhesion. LSF-library compounds were dissolved in DMSO, serial diluted in appropriate medium and added to cells in triplicate (2 plates). DMSO was added to control wells at a final concentration of 1%. After 72 h incubation in the presence of compound, confluent cells were assayed for growth proliferation with CellTiter 96® AQueous One Solution Cell Proliferation Assay (MTS) (Promega) according to the manufacturer's protocol. Plates were read at 490 nm on a microplate reader, and IC50 values were determined as the percentage of compound-treated cell growth to control cell growth. HCC cells—one hour after plating HCC cells onto 96-well plates, compound or vehicle (DMSO) was added to the desired concentrations, keeping DMSO at 0.5%. At indicated time points, cell viability was assayed using the CellTiter 96® Non-Radioactive Cell Proliferation Assay (MTT) (Promega).
(§2) QGY-7703 and A549 cells were cultured at 37° C. in 5% CO2 in DMEM (Dulbecco's modification of Eagle's Medium; Corning) supplemented with 10% Fetal Bovine Serum (FBS; Invitrogen). NIH-3T3 cells were cultured at 37° C. in 5% CO2 in DMEM supplemented with 10% Fetal Calf Serum (FCS; Atlanta Biologicals). For cell viability assays, 1,500 cells were seeded in 96-well plates and treated with FQI-34 or vehicle (DMSO) at appropriate concentrations (DMSO at 1%) after 20 hours. After 72-hour incubation with compound or vehicle, cell growth was assessed via the Promega CellTiter 96® AQueous One Solution Cell Proliferation Assay, a colorimetric method to determine the number of viable cells. 20 μL of the CellTiter 96® AQueous One Solution Reagent was added directly into cultured wells and incubated for one hour, after which the absorbance at 490 nm was read with a 96-well plate reader (Opys MR Microplate Reader). The CellTiter 96® AQueous One Solution contains an MTS tetrazolium compound which is bioreduced by cells into a colored formazan product that is soluble in tissue culture medium. The quantity of formazan product as measured by absorbance is directly proportional to the number of living cells in culture. GI50 values were determined from plots of the percentage of compound-treated cell growth to vehicle cell growth vs. compound concentration (GraphPad Prism; non-linear regression 4-parameter curve fit with variable slope).

In another test the test system is A549 cells. In words: Cell proliferation assay (MTS), A549. The following applies: for GI50: MTS. As to the method: as §1, §2

On to `CCOc1cc(N(C)C)ccc1C1CC(=O)Nc2cc3c(cc21)OCO3` (centres unmarked) [FQI-34, 8-(4-(dimethylamino)-2-ethoxyphenyl)-7,8-dihydro-[1,3]dioxolo[4,5-g]quinolin-6(5H)-one], for which the IC50 on LSF (Table 5, read-out: LSF-reporter assay IC50) stood at 0.726 µM; at LSF (Table 8, read-out: LSF-reporter assay IC50), 0.726 µM; on LSF (dual-luciferase reporter, NIH-3T3, FIG. 12, read-out: LSF-Target affinity IC50), 0.59 µM. Further, the GI50 turned out to be 1.49 µM in the test on NIH/3T3 cells (1,500 cells seeded, 72-hour incubation, MTS, read-out: GI50 in NIH-3T3 cells) and 1.8 µM in the test on A549 cells (Homo sapiens, 1,500 cells seeded, 72-hour incubation, read-out: GI50 in A549 cells).
Regarding `CCOc1ccccc1C1CC(=O)Nc2cc3c(cc21)OCO3` (racemic) [FQI1, 8-(2-ethoxyphenyl)-7,8-dihydro-[1,3]dioxolo[4,5-g]quinolin-6(5H)-one], the IC50 was ~2.4 µM and 2.4 µM on LSF (NIH 3T3 cells, dual luciferase, ranges where few concentrations tested, read-out: IC50 (μM) LSF-dependent reporter assat NIH 3T3); 3000 ± 850 nM in the test with NIH/3T3 cells (Example 7, FIG. 8, read-out: growth inhibition of NIH/3T3 Cell Line IC50); 6.3 ± 1.1 µM in the test on A549 cells (Homo sapiens, Example 7, FIG. 8, read-out: growth inhibition of A549 Cell Line IC50). Further, the GI50 worked out at 3 µM with NIH/3T3 cells (72 h, MTS, read-out: GI50 (μM) NIH/3T3); 3 ± 0.9 µM in the test on NIH/3T3 cells (Table 3, read-out: GI50 (μM) NIH 3T3); 6.3 µM in the test on A549 cells (Homo sapiens, 72 h, read-out: GI50 (μM) A549).
